The results in this text go back to patent US12441762B2, “Hepatitis c virus NS3/4A protease inhibitors” (priority 2019, dated 2025).

Each structure is given as a SMILES string.

Assay in all cases: biochemical
For test [1], the target named is T1, HCV NS3/4A protease D168A variant (Hepatitis C virus genotype 1a, UniProt P27958, C1185S/D1194A).
T1 construct: His-tag (cleaved yes); made in house; host or cells: Escherichia coli BL21(DE3), PET28a vector
The test is classed as biochemical. An outline of the steps: (§1)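 Inhibitors pre-incubated 1 h at room temperature with 2 nM NS3/4A protease (GT1a C159S or D168A) in 50 mM Tris, 5% glycerol, 10 mM DTT, 0.6 mM LDAO, 4% DMSO, pH 7.5. Km from global Michaelis-Menten fit of inner-filter-corrected initial velocities; three independent data sets per inhibitor and construct.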

Test [2] concerns HCV NS3/4A protease D168A variant. The test is classed as biochemical, Hepatitis C virus. Conditions: for Fold Change of D168A Ki with respect to GT1a wild-type: Table S1, value in parentheses. The gist of the method: as §1
Test [3] concerns the target T2, wild-type HCV NS3/4A protease (GT1a) (Hepatitis C virus genotype 1a, UniProt P27958, C1185S).
T2 construct: His-tag (cleaved yes); made in house; host or cells: Escherichia coli BL21(DE3), PET28a vector
The test is classed as biochemical. The gist of the method:
as §1

The target in another test is HCV NS3/4A protease GT3 (Hepatitis C virus genotype 3a, UniProt Q81495).
Chain of HCV NS3/4A protease GT3 (Q81495 1033-1214): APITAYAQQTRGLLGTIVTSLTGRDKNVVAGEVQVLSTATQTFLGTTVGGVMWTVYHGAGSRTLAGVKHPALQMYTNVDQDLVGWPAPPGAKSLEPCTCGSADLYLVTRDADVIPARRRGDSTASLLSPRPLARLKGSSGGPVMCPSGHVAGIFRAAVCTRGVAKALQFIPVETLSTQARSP
Chain of HCV NS3/4A protease GT3 (Q81495 1664-1717): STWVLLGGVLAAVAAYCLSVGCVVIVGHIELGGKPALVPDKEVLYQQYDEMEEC

T1 sequence (P27958 1027-1208 C1185S/D1194A): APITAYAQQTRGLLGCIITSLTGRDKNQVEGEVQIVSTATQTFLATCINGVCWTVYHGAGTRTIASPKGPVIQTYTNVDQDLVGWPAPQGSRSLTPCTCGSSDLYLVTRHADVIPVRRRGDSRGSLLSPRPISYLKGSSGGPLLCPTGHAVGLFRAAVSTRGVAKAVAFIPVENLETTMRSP
T2 sequence (P27958 1027-1208 C1185S): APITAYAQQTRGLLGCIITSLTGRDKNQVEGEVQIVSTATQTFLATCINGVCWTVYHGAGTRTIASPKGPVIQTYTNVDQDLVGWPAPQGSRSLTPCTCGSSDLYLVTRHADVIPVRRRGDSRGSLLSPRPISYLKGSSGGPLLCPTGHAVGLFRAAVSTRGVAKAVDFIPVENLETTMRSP

As a reminder, the Ki is a measure of affinity in units of concentration, obtained from inhibition or displacement. Take `CC[C@H](C)[C@H](NC(C)=O)C(=O)N[C@H]1CCCCC/C=C\[C@@H]2C[C@@]2(C(=O)NS(=O)(=O)C2(C)CC2)NC(=O)[C@@H]2C[C@@H](Oc3nc4cc(OC)ccc4nc3C)CN2C1=O` [Inhibitor P4P5-4, (2R,6S,13aS,14aR,16aS,Z)-6-((2S,3S)-2-acetamido-3-methylpentanamido)-2-((7-methoxy-3-methylquinoxalin-2-yl)oxy)-N-((1-methylcyclopropyl)sulfonyl)-5,16-dioxo-1,2,3,6,7,8,9,10,11,13a,14,15,16,16a-tetradecahydrocyclopropa[e]pyrrolo[1,2-a][1,4]diazacyclopentadecine-t4a(5H)-carboxamide]: the Ki in test [1] came to 0.081 µM; in test [3] it was 0.0071 ± 0.00024 µM. The “Fold Change of D168A Ki with respect to GT1a wild-type” value (shortened to “Fold Change of D168A Ki”) in test [2] is “(11) fold”.
Compound `COC(=O)NC1(C(=O)N[C@H]2CCCCC/C=C\[C@@H]3C[C@@]3(C(=O)NS(=O)(=O)C3(C)CC3)NC(=O)[C@@H]3C[C@@H](Oc4nc5cc(OC)ccc5nc4C)CN3C2=O)CCCC1` [Inhibitor P4P5-5, Methyl (1-(((2R,6S,13aS,14aR,16aS,Z)-2-((7-methoxy-3-methylquinoxalin-2-yl)oxy)-14a-(((1-methylcyclopropyl)sulfonyl)carbamoyl)-5,16-dioxo-1,2,3,5,6,7,8,9,10,11,13a,14,14a,15,16,16a-hexadecahydrocyclopropa[e]pyrrolo[1,2-a][1,4]diazacyclopentadecin-6-yl)carbamoyl)cyclopentyl)carbamate] registered an inhibitory constant (Ki) in test [1] of 0.931 ± 0.07 µM. Besides, in test [2], the “fold loss in potency against D168A relative to WT” value is 30 fold and the “Fold Change of D168A Ki” value is recorded as “(30) fold”. The Ki in test [3] worked out at 0.031 ± 0.00274 µM.
As to `COC(=O)N[C@H](C(=O)N[C@H]1CCCCC/C=C\[C@@H]2C[C@@]2(C(=O)NS(=O)(=O)C2(C)CC2)NC(=O)[C@@H]2C[C@@H](Oc3nc4cc(OC)ccc4nc3C)CN2C1=O)C1CCCCC1` [Inhibitor P4P5-6, Methyl ((S)-1-cyclohexyl-2-(((2R,6S,13aS,14aR,16aS,Z)-2-((7-methoxy-3-methylquinoxalin-2-yl)oxy)-14a-(((1-methylcyclopropyl)sulfonyl)carbamoyl)-5,16-dioxo-1,2,3,5,6,7,8,9,10,11,13a,14,14a,15,16,16a-hexadecahydrocyclopropa[e]pyrrolo[1,2-a][1,4]diazacyclopentadecin-6-yl)amino)-2-oxoethyl)carbamate], the Ki in test [1] stood at 0.00968 ± 0.00064 µM; in test [3], 0.00091 ± 0.00038 µM. The “fold more potent than grazoprevir towards D168A” value in test [1] (compared to grazoprevir) turned out to be 5 fold. Besides, the “Fold Change of D168A Ki” value in test [2] is “(11) fold”.
For `CCC1(OC(=O)N[C@H]2CCCCC/C=C\[C@@H]3C[C@@]3(C(=O)NS(=O)(=O)C3(C)CC3)NC(=O)[C@@H]3C[C@@H](Oc4nc5cc(OC)ccc5nc4C)CN3C2=O)CCCC1` [NR01-97, 1-Ethylcyclopentyl ((2R,6S,13aS,14aR,16aS, Z)-2-((7-methoxy-3-methylquinoxalin-2-yl)oxy)-14a-(((1-methylcyclopropyl)sulfonyl)carbamoyl)-5,16-dioxo-1,2,3,5,6,7,8,9,10,11,13a,14,14a,15,16,16a-hexadecahydrocyclopropa[e]pyrrolo[1,2-a][1,4]diazacyclopentadecin-6-yl) carbamate], in test [1], affinity was put at a Ki of 0.0217 ± 0.0023 µM and the “fold increase in potency against D168A compared to the parent compound” value is ~3 fold. In addition, the “Fold Change of D168A Ki” value in test [2] is “(17) fold”. Further, affinity in test [3] was put at a Ki of 0.00129 ± 5e-05 µM.
In the case of `COc1ccc2nc(C(F)(F)F)c(O[C@@H]3C[C@H]4C(=O)N[C@]5(C(=O)NS(=O)(=O)C6(C)CC6)C[C@H]5/C=C\CCCCC[C@H](NC(=O)O[C@@H](C)C(C)C)C(=O)N4C3)nc2c1` [NR01-101, (S)-3-Methylbutan-2-yl ((2R,6S,13aS,14aR,16aS,Z)-2-((7-methoxy-3-(trifluoromethyl)quinoxalin-2-yl)oxy)-14a-(((1-methylcyclopropyl)sulfonyl)carbamoyl)-5,16-dioxo-1,2,3,5,6,7,8,9,10,11,13a,14,14a,15,16,16a-hexadecahydrocyclopropa [e]pyrrolo[1,2-a][1,4]diazacyclopentadecin-6-yl)carbamate], the Ki in test [1] was 0.0262 ± 0.0023 µM; in test [3] it was 0.0061 ± 0.00057 µM; on HCV NS3/4A protease GT3, 0.447 ± 0.025 µM.
Turning to `COc1ccc2nc(C)c(O[C@@H]3C[C@H]4C(=O)N[C@]5(C(=O)NS(=O)(=O)C6(C)CC6)C[C@H]5/C=C\CCCCC[C@H](NC(=O)O[C@H](C)C(F)(F)F)C(=O)N4C3)nc2c1` [NR01-145, (R)-1,1,1-Trifluoropropan-2-yl ((2R,6S,13aS,14aR,16aS,Z)-2-((7-methoxy-3-methylquinoxalin-2-yl)oxy)-14a-(((1-methylcyclopropyl)sulfonyl)carbamoyl)-5,16-dioxo-1,2,3,5,6,7,8,9,10,11,13a,14,14a,15,16,16a-hexadecahydrocyclopropa[e]pyrrolo[1,2-a][1,4]diazacyclopentadecin-6-yl)carbamate], the Ki in test [1] is 0.008 ± 0.001 µM; in test [3], 0.0011 ± 0.0001 µM; on HCV NS3/4A protease GT3, 0.122 ± 0.011 µM.
Take `COc1ccc2nc(C)c(O[C@@H]3C[C@H]4C(=O)N[C@]5(C(=O)NS(=O)(=O)C6(C)CC6)C[C@H]5/C=C\CCCCC[C@H](NC(=O)O[C@@H]5CCC[C@H]5F)C(=O)N4C3)nc2c1` [NR02-08, (1R,2R)-2-Fluorocyclopentyl ((2R,6S,13aS,14aR,16aS,Z)-2-((7-methoxy-3-methylquinoxalin-2-yl)oxy)-14a-(((1-methylcyclopropyl)sulfonyl)carbamoyl)-5,16-dioxo-1,2,3,5,6,7,8,9,10,11,13a,14,14a,15,16,16a-hexadecahydrocyclopropa[e]pyrrolo [1,2-a][1,4]diazacyclopentadecin-6-yl)carbamate]: the Ki in test [1] is 0.016 ± 0.001 µM; in test [3], 0.0023 ± 0.0002 µM; on HCV NS3/4A protease GT3, 0.216 ± 0.032 µM.
On to `COc1ccc2nc(C(F)(F)F)c(O[C@@H]3C[C@H]4C(=O)N[C@]5(C(=O)NS(=O)(=O)C6(C)CC6)C[C@H]5/C=C\CCCCC[C@H](NC(=O)OC5(C)CCCC5)C(=O)N4C3)nc2c1` [NR02-15, 1-Methylcyclopentyl ((2R,6S,13aS,14aR,16aS,Z)-2-((7-methoxy-3-(trifluoromethyl)quinoxalin-2-yl)oxy)-14a-(((1-methylcyclopropyl)sulfonyl)carbamoyl)-5,16-dioxo-1,2,3,5,6,7,8,9,10,11,13a,14,14a,15,16,16a-hexadecahydrocyclopropa[e]pyrrolo[1,2-a][1,4]diazacyclopentadecin-6-yl)carbamate], for which the figures for the inhibitory constant (Ki) (in test [1]; in test [3]; on HCV NS3/4A protease GT3) were 0.0118 ± 0.0018 µM, 0.0009 ± 0.0001 µM and 0.161 ± 0.013 µM, respectively.
As to `COc1ccc2nc(C)c(O[C@@H]3C[C@H]4C(=O)N[C@]5(C(=O)NS(=O)(=O)C6(C)CC6)C[C@H]5/C=C\CCCCC[C@H](NC(=O)OC5(C)CC5)C(=O)N4C3)nc2c1` [NR02-24, 1-Methylcyclopropyl ((2R,6S,13aS,14aR,16aS,Z)-2-((7-methoxy-3-methylquinoxalin-2-yl)oxy)-14a-(((1-methylcyclopropyl)sulfonyl)carbamoyl)-5,16-dioxo-1,2,3,5,6,7,8,9,10,11,13a,14,14a,15,16,16a-hexadecahydrocyclopropa[e]pyrrolo [1,2-a][1,4]diazacyclopentadecin-6-yl)carbamate], in test [1], the inhibition constant Ki was found to be 0.0279 ± 0.0041 µM and the “fold increase in potency against D168A compared to the parent compound” value is ~2 fold. Moreover, the “Fold Change of D168A Ki” value in test [2] is “(6) fold”. The compound further returned an inhibition constant Ki in test [3] of 0.00444 ± 0.0003 µM.
`COc1ccc2nc(C(F)(F)F)c(O[C@@H]3C[C@H]4C(=O)N[C@]5(C(=O)NS(=O)(=O)C6(C)CC6)C[C@H]5/C=C\CCCCC[C@H](NC(=O)O[C@@H](C)C(F)(F)F)C(=O)N4C3)nc2c1` [NR02-32, (S)-1,1,1-Trifluoropropan-2-yl ((2R,6S,13aS,14aR,16aS,Z)-2-((7-methoxy-3-(trifluoromethyl)quinoxalin-2-yl)oxy)-14a-(((1-methylcyclopropyl)sulfonyl)carbamoyl)-5,16-dioxo-1,2,3,5,6,7,8,9,10,11,13a,14,14a,15,16,16a-hexadecahydrocyclopropa[e]pyrrolo[1,2-a][1,4]diazacyclopentadecin-6-yl)carbamate]: the results for the Ki (in test [1]; in test [3]; on HCV NS3/4A protease GT3) were 0.0446 ± 0.0073 µM, 0.00769 ± 0.00089 µM and 0.58 ± 0.05 µM, respectively.
As for `COc1ccc2nc(C)c(O[C@@H]3C[C@H]4C(=O)N[C@]5(C(=O)NS(=O)(=O)C6(C)CC6)C[C@H]5/C=C\CCCCC[C@H](NC(=O)OC5(C)CCC5)C(=O)N4C3)nc2c1` [NR02-61, 1-Methylcyclobutyl ((2R,6S,13aS,14aR,16aS,Z)-2-((7-methoxy-3-methylquinoxalin-2-yl)oxy)-14a-(((1-methylcyclopropyl)sulfonyl)carbamoyl)-5,16-dioxo-1,2,3,5,6,7,8,9,10,11,13a,14,14a,15,16,16a-hexadecahydrocyclopropa[e]pyrrolo [1,2-a][1,4]diazacyclopentadecin-6-yl)carbamate], the Ki in test [1] came to 0.0464 ± 0.0034 µM; in test [3] it was 0.0014 ± 0.00013 µM. Besides, the “Fold Change of D168A Ki” value in test [2] is recorded as “(33) fold”. In test [3] (compared to parent compound), the “fold increase in potency towards WT compared to the parent compound” value is on record as 4 fold.
The compound `COc1ccc2nc(C(F)(F)F)c(O[C@@H]3C[C@H]4C(=O)N[C@]5(C(=O)NS(=O)(=O)C6(C)CC6)C[C@H]5/C=C\CCCCC[C@H](NC(=O)O[C@@H]5C[C@@H]6C[C@@H]6C5)C(=O)N4C3)nc2c1` [NR04-49, (1R,3R,5S)-Bicyclo[3.1.0]hexan-3-yl ((2R,6S,13aS,14aR,16aS,Z)-2-((7-methoxy-3-(trifluoromethyl)quinoxalin-2-yl)oxy)-14a-(((1-methylcyclopropyl)sulfonyl)carbamoyl)-5,16-dioxo-1,2,3,5,6,7,8,9,10,11,13a,14,14a,15,16,16a-hexadecahydrocyclopropa[e]pyrrolo[1,2-a][1,4]diazacyclopentadecin-6-yl)carbamate] showed a Ki at HCV NS3/4A protease GT3 of 0.17 ± 0.013 µM.
